From patent publication US9326513B2, “Fungicidal compositions” (Syngenta Participations AG, priority 2011, dated 2016)

Columns and labels:
Type in all cases: in vivo
Conditions in all cases: foliar, compared to untreated control leaf disks, read-out: disease control
[1] = system: Blumeria graminis f. sp. tritici (Erysiphe graminis f. sp. tritici); test: Blumeria graminis f. sp. tritici / wheat / leaf disc preventative (powdery mildew on wheat)
Method: Blumeria graminis f. sp. tritici (Erysiphe graminis f. sp. tritici)/Wheat/Leaf Disc Preventative (Powdery Mildew on Wheat)
Wheat leaf segments cv. Kanzler were placed on agar in a multiwell plate (24-well format) and sprayed with the formulated test compound diluted in water. The leaf disks were inoculated by shaking powdery mildew infected plants above the test plates 1 day after application. The inoculated leaf disks were incubated at 20° C. and 60% rh under a light regime of 24 h darkness followed by 12 h light/12 h darkness in a climate chamber and the activity of a compound was assessed as percent disease control compared to untreated when an appropriate level of disease damage appears on untreated check leaf segments (6-8 days after application).
The following compounds gave at 200 ppm give at least 50% disease control in this test when compared to untreated control leaf disks under the same conditions, which show extensive disease development: […]

[2] = system: Puccinia recondita f. sp. tritici; test: Puccinia recondita f. sp. tritici / wheat / leaf disc curative (brown rust)
Method: Puccinia recondita f. sp. tritici/Wheat/Leaf Disc Curative (Brown Rust) Wheat leaf segments cv. Kanzler are placed on agar in multiwell plates (24-well format). The leaf segments are inoculated with a spore suspension of the fungus. Plates were stored in darkness at 19° C. and 75% rh. The formulated test compound diluted in water was applied 1 day after inoculation.

[3] = system: Puccinia recondita f. sp. tritici; test: Puccinia recondita f. sp. tritici / wheat / leaf disc preventative (brown rust)
Description: Puccinia recondita f. sp. tritici/Wheat/Leaf Disc Preventative (Brown Rust) Wheat leaf segments cv. Kanzler were placed on agar in multiwell plates (24-well format) and sprayed with the formulated test compound diluted in water. The leaf disks were inoculated with a spore suspension of the fungus 1 day after application.

Pyrenophora teres = Pyrenophora teres / barley / leaf disc preventative (net blotch)
Description: Pyrenophora teres/Barley/Leaf Disc Preventative (Net Blotch) Barley leaf segments cv. Hasso were placed on agar in a multiwell plate (24-well format) and sprayed with the formulated test compound diluted in water. The leaf segments were inoculated with a spore suspension of the fungus 2 days after application.

Measured: pest or weed control at 200 ppm

CCN(C)/C=N/c1cc(Br)c(OCc2ccc(F)c(C)c2)nc1C [Q.323]
≥ 50%: [1] | [2] | [3]

CCN(C)/C=N/c1cc(Br)c(OC2CCc3c(OC)cccc32)nc1C (stereo not drawn) [Q.050]
≥ 50%: [1] | [2] | [3]

C#CCOc1nc(C)c(/N=C/N(C)CC)cc1Br [Q.078]
≥ 50%: [1] | [2] | [3]

COc1cc(OC)cc(C(C)Oc2ccc(/N=C/N(C)C(C)C)c(C)n2)c1 (stereo not drawn) [Q.374]
≥ 50%: [1] | [2] | [3]

CCN(C)/C=N/c1ccc(OCc2cc(C)cc(C)c2)nc1C [Q.296]
≥ 50%: [1] | [2] | [3]

CCN(C)/C=N/c1cc(Br)c(OCc2cc(C(F)(F)F)cc(C(F)(F)F)c2)nc1C [Q.152]
≥ 50%: [1] | [2] | [3]

CCC(Oc1ccc(/N=C/N(C)CC)c(C)n1)c1ccccc1 (stereo not drawn) [Q.347]
≥ 50%: [1] | [2] | [3]

CCN(C)/C=N/c1cc(Br)c(OC(C)c2ccccc2C(C)C)nc1C (stereo not drawn) [Q.307]
≥ 50%: [1] | [2] | [3]

CCN(C)/C=N/c1cc(Br)c(OC(C)c2ccccc2C)nc1C (stereo not drawn) [Q.321]
≥ 50%: [1] | [2] | [3]

CSc1ccccc1COc1ccc(/N=C/N(C)C(C)C)c(C)n1 [Q.339]
≥ 50%: [1] | [2] | [3]

CCN(C)/C=N/c1ccc(OC2CCCCC2C)nc1C (stereo not drawn) [Q.341]
≥ 50%: [1] | [2] | [3]

CCN(C)/C=N/c1cc(Br)c(OC2CCC(=O)CC2C)nc1C (single isomer, unassigned) [Q.332]
≥ 50%: [1] | [2] | [3]

CCN(C)/C=N/c1cc(Br)c(OCc2cccc(N(C)C)c2)nc1C [Q.177]
≥ 50%: [1] | [2] | [3]

CCN(C)/C=N/c1cc(I)c(O[C@H]2CC[C@H](C(C)C)CC2)nc1C [Q.179]
≥ 50%: [1] | [2] | [3]

CCN(C)/C=N/c1cc(Br)c(OC2Cc3cc(Br)c(OC)cc3C2)nc1C (stereo not drawn) [Q.202]
≥ 50%: [1] | [3] | Pyrenophora teres

C=CCC(C)Oc1nc(C)c(/N=C/N(C)CC)cc1Br (stereo not drawn) [Q.145]
≥ 50%: [1] | [2] | [3]

CCc1ccccc1C(C)Oc1nc(C)c(/N=C/N(C)CC)cc1Br (stereo not drawn) [Q.283]
≥ 50%: [1] | [2] | [3]

Cc1nc(OC(C)c2cc(F)cc(F)c2)c(Br)cc1/N=C/N(C)C(C)C (stereo not drawn) [Q.188]
≥ 50%: [1] | [2] | [3]

CCN(C)/C=N/c1cc(Br)c(OC(C)CCc2ccccc2)nc1C (stereo not drawn) [Q.147]
≥ 50%: [1] | [2] | [3]

CCN(C)/C=N/c1cc(Br)c(OC(C)(C)c2cc(-c3ccccc3)no2)nc1C [Q.077]
≥ 50%: [1] | [2] | [3]

CCN(C)/C=N/c1cc(Br)c(OCc2snc(-c3ccc(F)cc3)c2Br)nc1C [Q.125]
≥ 50%: [1] | [3] | Pyrenophora teres

C/C=C/C(C)Oc1nc(C)c(/N=C/N(C)CC)cc1Br (stereo not drawn) [Q.331]
≥ 50%: [1] | [2] | [3]

CCN(C)/C=N/c1cc(Br)c(OC2CCC3(CC2)NC(=O)NC3=O)nc1C (stereo not drawn) [Q.072]
≥ 50%: [1] | [2] | [3]

CCN(C)/C=N/c1cc(Br)c(OC2CCc3ccc(Br)cc3C2)nc1C (stereo not drawn) [Q.127]
≥ 50%: [1] | [2] | [3]

CCN(C)/C=N/c1cc(Br)c(OCCCCc2ccc(Cl)cc2)nc1C [Q.045]
≥ 50%: [1] | [2] | [3]
